According to ChEMBL document CHEMBL2074401, “Difloxacin reverses multidrug resistance in HL-60/AR cells that overexpress the multidrug resistance-related protein (MRP) gene” (Oncol Res, 1995):

Target: Multidrug resistance-associated protein 1 (Homo sapiens, UniProt P33527)
Assay: TP_TRANSPORTER: increase in Daunorubicin, Adriamycin and Vincristine intracellular accumulation (Daunorubicin: 4 ug/mL, Difloxacin: 62.5 uM) in HL-60/AR cells
Format: functional, cell-based

Chain of Multidrug resistance-associated protein 1 (P33527 whole entry): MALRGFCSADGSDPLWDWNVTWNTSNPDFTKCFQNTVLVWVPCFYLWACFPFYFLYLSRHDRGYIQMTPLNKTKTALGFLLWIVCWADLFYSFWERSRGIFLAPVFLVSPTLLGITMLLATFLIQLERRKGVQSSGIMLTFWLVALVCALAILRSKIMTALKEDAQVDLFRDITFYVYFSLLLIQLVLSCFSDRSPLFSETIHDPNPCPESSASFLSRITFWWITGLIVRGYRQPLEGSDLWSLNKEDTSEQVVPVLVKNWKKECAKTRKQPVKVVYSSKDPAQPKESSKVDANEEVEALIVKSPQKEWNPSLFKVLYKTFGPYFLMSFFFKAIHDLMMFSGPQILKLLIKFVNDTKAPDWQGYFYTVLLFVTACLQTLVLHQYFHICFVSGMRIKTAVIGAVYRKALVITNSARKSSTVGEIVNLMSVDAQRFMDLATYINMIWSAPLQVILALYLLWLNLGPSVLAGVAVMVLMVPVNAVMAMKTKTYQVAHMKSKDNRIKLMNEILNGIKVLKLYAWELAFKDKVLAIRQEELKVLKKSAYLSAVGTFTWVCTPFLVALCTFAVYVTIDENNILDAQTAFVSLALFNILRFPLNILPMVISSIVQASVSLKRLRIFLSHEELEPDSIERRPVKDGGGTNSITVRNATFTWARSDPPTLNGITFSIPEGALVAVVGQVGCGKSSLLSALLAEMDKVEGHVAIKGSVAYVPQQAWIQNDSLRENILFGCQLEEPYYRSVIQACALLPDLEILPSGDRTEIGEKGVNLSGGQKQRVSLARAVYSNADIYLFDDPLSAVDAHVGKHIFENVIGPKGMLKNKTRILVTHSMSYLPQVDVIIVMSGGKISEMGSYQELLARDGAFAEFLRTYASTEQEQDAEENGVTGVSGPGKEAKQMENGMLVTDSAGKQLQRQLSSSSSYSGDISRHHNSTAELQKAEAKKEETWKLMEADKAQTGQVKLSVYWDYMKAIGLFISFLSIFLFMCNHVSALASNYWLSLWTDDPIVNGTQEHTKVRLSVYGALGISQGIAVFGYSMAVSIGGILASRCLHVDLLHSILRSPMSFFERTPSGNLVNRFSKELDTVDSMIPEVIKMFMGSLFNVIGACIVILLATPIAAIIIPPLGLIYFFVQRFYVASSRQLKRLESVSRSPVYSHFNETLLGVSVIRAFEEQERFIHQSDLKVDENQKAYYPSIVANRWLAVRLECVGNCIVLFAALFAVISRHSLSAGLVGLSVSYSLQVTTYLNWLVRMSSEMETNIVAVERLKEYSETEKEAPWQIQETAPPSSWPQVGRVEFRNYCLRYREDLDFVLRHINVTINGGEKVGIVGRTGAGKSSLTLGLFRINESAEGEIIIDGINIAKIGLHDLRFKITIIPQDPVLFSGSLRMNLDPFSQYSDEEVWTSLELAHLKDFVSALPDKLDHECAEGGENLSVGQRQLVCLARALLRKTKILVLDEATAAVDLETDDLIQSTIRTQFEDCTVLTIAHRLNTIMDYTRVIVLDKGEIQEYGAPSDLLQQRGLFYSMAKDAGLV

SMILES: CN1CCN(c2cc3c(cc2F)c(=O)c(C(=O)O)cn3-c2ccc(F)cc2)CC1 [DIFLOXACIN]
- Activity: inhibitor [1.3 to 2.9-fold]
